The record followed here is patent publication US9539298B2, “Lissencephaly therapeutic agent” (OSAKA CITY UNIVERSITY, priority 2010, dated 2017).

Assay [1] deals with LIS1 heterozygous mouse embryos. The assay is described as follows: LIS1 protein in mouse embryo brains after SNJ-1945 intraperitoneal administration. Type of assay: in vivo. How it is done: A neo(−)129S-Pafah1b1^tm2Awb/J homozygous male mouse lacking neo gene was mated with five homozygous EII-Cre transgenic female mice (FVB/N-Tg (EIIa-cre) C5379Lmgd/J, The Jackson Laboratory) by raising them in the same mouse cage. In total, six sets of mouse cages were prepared for the mating experiment. The neo(−)129S-Pafah1b1^tm2Awb/J homozygous mouse were prepared in the same manner as above. Plug check (confirmation of mating) was carried out every morning between 7 and 10 am, thereby determining the gestation cycle. SNJ-1945 was dissolved in dimethyl sulfoxide (DMSO; Sigma, D8779) at a concentration of 100 mg/ml, and intraperitoneally injected to the pregnant mice so that the administration amount became 100 μg per gram of body weight upon Day 12 of embryo period (E12) (intraperitoneal administration). To determine the effect of SNJ-1945 administration, LIS1 proteins of normal mouse embryos and those of LIS1 heterozygous mouse embryos (administered with SNJ-1945) were measured. […]
Pregnant mice were killed by cervical fracture, and the mouse embryos were immediately isolated to obtain the brain tissues. For the measurement of LIS1 protein amount, the brain weights were immediately measured as soon as the brains were removed.

Assay [2] has as its system LIS1 heterozygous mice (lissencephaly model mice). The assay is described as follows: Behavior analysis: rotor rod test. Type of assay: in vivo, mouse. Particulars: M2 and M3 groups, 200 μg/g per day oral. How it is done:
(§1) To conduct a behavior analysis experiment, wild-type mice and Lis1 (^+/−) heterozygous mice were divided into five groups (C group, M1 group, M2 group, M3 group, and M4 group). The details regarding the mice in each group are described below. CE-2 (CLEA Japan, Inc.) was used as mice feed. The wild-type mice and heterozygous mice used for this experiment were prepared in the same method as described in the above section “Preparation of LIS1 gene hetero-deficient mice (LIS1 heterozygous mice).”
M2 group: LIS1 heterozygous mice prepared as follows. SNJ-1945 was dissolved in dimethyl sulfoxide (Sigma, D-5879) at a concentration of 100 mg/ml, and administered to pregnant mice from Day 9.5 of the embryonic period (E9.5) in an amount of 200 μg per gram of maternal body weight per day. The administration was performed by adding SNJ-1945 to mice feed. […]
By adding SNJ-1945 to the mice feed (CE-2, CLEA Japan, Inc.), SNJ-1945 was continuously administered to the mice so that the administration amount became 200 μg per gram of body weight per day through oral administration. For a behavior analysis experiment, 12 to 16 mice were grouped to be subjected to preliminary breeding in the behavior experiment facility for 1 to 2 weeks; thereafter, the behavior of the mice was analyzed at an age of about 9 to 12 weeks. After the behavior analysis experiment, a gene type was determined for all mice. […]

Assay [3] shares this test system. Nature of the assay: Behavior analysis: Gait Analysis. Type of assay: in vivo, mouse. Particulars: 200 μg/g per day oral; for Swing-to-Stance Ratio: FIG. 13. How it is done:
as §1
M2 group: LIS1 heterozygous mice prepared as follows. SNJ-1945 was dissolved in dimethyl sulfoxide (Sigma, D-5879) at a concentration of 100 mg/ml, and administered to pregnant mice from Day 9.5 of the embryonic period (E9.5) in an amount of 200 μg per gram of maternal body weight per day. The administration was performed by adding SNJ-1945 to mice feed. During the postnatal period, the administration was continued in the same manner as in M3 group below. M3 group: LIS1 heterozygous mice prepared as follows. […]
By adding SNJ-1945 to the mice feed (CE-2, CLEA Japan, Inc.), SNJ-1945 was continuously administered to the mice so that the administration amount became 200 μg per gram of body weight per day through oral administration. For a behavior analysis experiment, 12 to 16 mice were grouped to be subjected to preliminary breeding in the behavior experiment facility for 1 to 2 weeks; thereafter, the behavior of the mice was analyzed at an age of about 9 to 12 weeks. After the behavior analysis experiment, a gene type was determined for all mice.
Statistical processing of experiment data of mice behavior analysis was conducted using Stat View (SAS institute) statistics software. ANOVA assay (analysis of variance between multiple groups) was conducted for all five groups, and a group with a risk rate (p value) of less than 5% (p<0.05) was determined to have a significant difference. […]

For the molecule `COCCOCCOC(=O)N[C@@H](CC(C)C)C(=O)N[C@@H](Cc1ccccc1)C(=O)C(=O)NC1CC1` [compound 17, ((1S)-1-((((1S)-1-Benzyl-2,3-dioxo-3-(cyclopropylamino)propyl)amino)carbonyl)-3-methylbutyl)carbamic acid 5-methoxy-3-oxapentyl ester], the “LIS1 protein amount in embryo brain” value in assay [1] (100 μg per gram of body weight IP to pregnant mice, E12, FIG. 6) was “recovered to a substantially normal level”. The “duration of the effect on LIS1 protein after a single dose” value in assay [1] (100 μg/g IP to pregnant mice, E12) is “continued for at least three days”. Besides, in assay [2] (FIG. 10), the “motor ability development curve (time on the rod over repeated tests)” value was “positioned between M1 group and C group”. For the same molecule, the “total time spent on the rod” value in assay [2] (FIG. 11) was “increased to the extent that there was almost no significant difference from C group”. The “% Swing” value in assay [3] (M2, M3 and M4 groups, FIG. 12) is on record as “there was no significant difference compared with C group”. Further, the “Swing-to-Stance Ratio” value is recorded as “recovered to a level at which there was no significant difference with C group” in assay [3] (M2 group (administration from E9.5)); “closer to 1 than M1 group” in assay [3] (M3 and M4 groups (administration from birth / postnatal Day 10)).
